These results are taken from US5354747A, “2-, 3-, 4-, 5-, 6-, 7-, 8-, 9- and/or 10-substituted dibenzoxazepine and dibenzthiazepine compounds, pharmaceutical compositions and methods of use” (G. D. Searle & Co., priority 1993, dated 1994).

Structures can show the parent of a compound that is named as a salt.

For experiment [1], the system named is prostaglandin E2 -induced contractions of segments of guinea pig ileum. As to the kind of experiment: Prostaglandin (PGE) Antagonism Assay. The class given is cell-based. The following applies: dose ratio of prostaglandin E2 EC50 doses with/without test compound, initial concentration 3 micromolar. As for the experimental part:
In order to determine the effectiveness of several of the compounds of the present invention ("test compounds") as prostaglandin E2 antagonists,a prostaglandin antagonism assay was conducted, as described below, to determine the ability of these compounds to inhibit prostaglandin E2 -induced contractions of segments of guinea pig ileum. […] Male albino guinea pigs weighing 200 to 500 grams were sacrificed by cervical dislocation. The ilea were then quickly removed from the guinea pigs and placed in a modified Tyrode solution, a solution which is known to those skilled in the art, containing one-half of the usual amount of magnesium ions. Segments of ileum about 2 cm long were then cut and mounted in a 10-mL tissue bath containing the modified Tyrode solution. The solution was maintained at 37° C. and aerated with a gaseous mixture of 95% oxygen and 5% carbon dioxide. Data for a control prostaglandin E2 dose response curve plotting concentration of prostaglandin E2 versus the intensity of contractions, detected isotonically, was then obtained by experimentally adjusting the dose of the prostaglandin E2 being injected into the tissue bath, in a manner known by those of skill in the art. Solutions or suspensions containing an initial concentration (3 micromolar) of a test compound in modified Tyrode solution ("test solutions/suspensions") were then separately substituted for the control bath solution. Each test solution/suspension was then kept in constant contact with the ileum tissue, except for brief periods to drain the bath in preparation for rinsing with fresh test solution/suspension. A second prostaglandin E2 dose response curve was then generated for prostaglandin E2 in the presence of a test compound. A dose ratio (DR) of EC50 doses was then calculated from the results of each test in a manner known by those of skill in the art. A control dose response curve (DRC) is produced in isolated segments of guinea pig ileum mounted in an automated apparatus with six concentrations of prostaglandin E2. A solution or suspension of test compound is substituted for the control bathing solution and is incubated for thirty minutes. An additional prostaglandin E2 dose response curve is produced in the presence of the test compound. A dose ratio is calculated from the EC50 values obtained from duplicate replications on each concentration of the test compound. […] The results of this prostaglandin antagonism assay are presented in Table 2 below in terms of their dose ratio. The compounds of the present invention which were tested in this assay, and for which results are presented in Table 2, correspond to the particular examples specified in Table 2.

Experiment [2] deals with Charles River male albino mice. As to the kind of experiment: Writhing Assay (PBQ-induced writhing, analgesic activity). The following applies: Intragastric; for responders at 30 mg/kg / ED50: Mus musculus, po; for responders at 30 mg/kg: 25 min, read-out: number of mice out of nine or ten in which a test compound produced analgesia (converted); for ED50: PBQ writhing, mice, maximum likelihood function, read-out: calculated ED50 value (dose which produced analgesia in 50% of the mice). The class given is in vivo. The text has this: The Writhing Assay is one of the most widely-used experimental procedures for measuring the analgesic activity of different narcotic and nonnarcotic analgesic agents, and involves the continuous, chemically-induced pain of visceral origin to an animal, such as a mouse or rat. [Gyires et al., Arch. int. Pharmacodyn, 267, 131-140 (1984); […] al., Fed. Proc., 15, 494 (1956); Koster et al., Fed. Proc., 18, 412 (1959); and Witken et al., J. Pharmacol. exp. Ther., 133, 400-408 (1961).] Chemicals which may be used to induce this pain include phenylbenzoquinone (PBQ) and acetic acid. As a result of the chemical irritation to the animal, a characteristic stretching and writhing of the animal (dorsiflexion of the animal's back, extension of its hindlimbs and the strong contraction of its abdominal musculature) will generally occur. […] Drugs which reduce the number of writhes of the animal appear to restore the normal nociceptive threshold of the animal. Charles River male albino mice, weighing 20 to 30 grams were used in this assay. Twenty-five minutes after intragastric administration to nine or ten mice of 30 mg per kilogram of body weight of a compound of the present invention ("test compound"), […] of body weight of a 0.025% w/v solution of PBQ was injected intraperitoneally into each mouse. Ten mice which were given saline in place of a test compound of the invention were used as a control group. Five minutes later, each mouse was individually placed into a glass beaker for observation, and the number of writhes occurring during the following ten-minute period was counted. A test compound was considered to have produced analgesia in a mouse if, in accordance with the conditions set forth above, and under the test criteria employed for this assay, after the administration of 30 mg per kilogram of body weight of a compound of the present invention to the mouse, the number of writhes elicited by a mouse injected with PBQ was equal to, or less than, one-half the median number of writhes recorded for the saline-treated control group of mice that day, as described by Taber in "Predictive Value of Analgesic Assays in Mice and Rats," Advances in Biochemical Psychopharmacology, 8, 191 (1974). […] If this initial screening dose of the test compound produced analgesia in seven of nine or ten mice, then the effect of additional doses of the test compound on the writhing response was evaluated, and then the ED50 value (that dose of a compound which produced analgesia in 50% of the mice to which the compound was administered) was generally calculated. A maximum likelihood function was used to determine the ED50 value. (The slopes of the dose-response curves for all test compounds analyzed were compared as described by Tallarida and Murray, Manual of Pharmacologic Calculations, Page 11 (Springer Verlag, New York, 1981)). The results for the particular compounds of the present invention analyzed in this assay, and discussed in the examples identified below which correspond thereto, are presented in Table 1 hereinbelow. The compounds of the present invention which were tested in this assay, and for which results are presented in Table 1, correspond to the particular examples specified in Table 1. The fractions indicate the number of mice out of nine or ten in which a test compound produced analgesia, and the whole numbers are the calculated ED50 values.

Where [3] appears, read: 30 mg per kilogram of body weight 25 min before PBQ i.p., writhes equal to or less than one-half the control median.

`CC(C)N1CCN(C(=O)N2Cc3ccccc3Oc3ccc(Cl)cc32)CC1.Cl` [Example 22, 8-chloro-10,11-dihydro-10-[[4-(1-methylethyl]-1-piperazinyl]carbonyl]dibenz[b,f][1,4]oxazepine, hydrochloride]: in experiment [1], the “Dose Ratio” value was 3.0. For the same compound, the responders at 30 mg/kg in experiment [2] (setting [3]) is 30%.

Turning to `CCN1CCN(C(=O)N2Cc3ccccc3Oc3ccc(Cl)cc32)CC1.Cl` [Example 19, 8-chloro-10-[(4-ethyl-1-piperazinyl)carbonyl]-10,11-dihydrodibenz[b,f][1,4]oxazepine, hydrochloride], the “Dose Ratio” value in experiment [1] was determined as 6.0. Further, in experiment [2] (setting [3]), the responders at 30 mg/kg is 22.2%.

As to `Cl.O=C(N1CCCNCC1)N1Cc2ccccc2Oc2ccc(Cl)cc21` [Example 61, 8-chloro-10-[(hexahydro-1H-1,4-diazepin-1-yl)carbonyl]-10,11-dihydrodibenz[b,f][1,4]oxazepine, hydrochloride], the “Dose Ratio” value in experiment [1] is reported as 4.8. The responders at 30 mg/kg in experiment [2] (setting [3]) was 60%.

Take `CCCCN1CCN(C(=O)N2Cc3ccccc3Oc3ccc(Cl)cc32)CC1.Cl` [Example 9, 10-[(4-butyl-1-piperazinyl)carbonyl]-8-chloro-10,11-dihydrodibenz[b,f][1,4]oxazepine, monohydrochloride]: the “Dose Ratio” value in experiment [1] is on record as 1.4. In addition, the 50% effective dose (ED50) – broadly, the dose that gives a 50% effect, or the effect in half of the subjects – in experiment [2] was 9.7 mg/kg.

Regarding `Cl.O=C(N1CCN(Cc2ccccc2)CC1)N1Cc2ccccc2Oc2ccc(Cl)cc21` [Example 7, 8-chloro-10,11-dihydro-10-[[4-(phenylmethyl)-1-piperazinyl]carbonyl]dibenz[b,f][1,4]oxazepine, monohydrochloride], the “Dose Ratio” value in experiment [1] turned out to be 5.1. The 50% effective dose (ED50) in experiment [2] is 6.8 mg/kg.

Turning to `Cl.O=C(N1CCN(Cc2ccco2)CC1)N1Cc2ccccc2Oc2ccc(Cl)cc21` [Example 65, 8-chloro-10-[[4-(2-furanylmethyl)-1-piperazinyl]carbonyl]-10,11-dihydrodibenz[b,f][1,4]oxazepine, monohydrochloride], the “Dose Ratio” value in experiment [1] was determined as 8.4. The responders at 30 mg/kg in experiment [2] (setting [3]) is 40%.

For `Cl.O=C(N1CCN(Cc2ccsc2)CC1)N1Cc2ccccc2Oc2ccc(Cl)cc21` [Example 47, 8-chloro-10,11-dihydro-10-[[4-(3-thienylmethyl)-1-piperazinyl]carbonyl]dibenz[b,f][1,4]oxazepine, monohydrochloride], the “Dose Ratio” value in experiment [1] was 2.9. In addition, the responders at 30 mg/kg in experiment [2] (setting [3]) is 70%.

For `Cl.O=C(N1CCN(c2ccccc2)CC1)N1Cc2ccccc2Oc2ccc(Cl)cc21` [Example 43, 8-chloro-10,11-dihydro-10-[(4-phenyl-1-piperazinyl)carbonyl]dibenz[b,f][1,4]oxazepine, hydrochloride], the “Dose Ratio” value in experiment [1] worked out at 0.8. Besides, the responders at 30 mg/kg in experiment [2] (setting [3]) was 10%.

`CCCCCCCCCCN1CCN(C(=O)N2Cc3ccccc3Oc3ccc(Cl)cc32)CC1.Cl` [Example 15, 8-chloro-10-[(4-decyl-1-piperazinyl)carbonyl]-10,11-dihydrodibenz[b,f][1,4]oxazepine, monohydrochloride]: the “Dose Ratio” value in experiment [1] is listed as 2.1. Moreover, the 50% effective dose (ED50) in experiment [2] is 6.4 mg/kg.

As to `Cl.O=C(N1CCN(Cc2cccs2)CC1)N1Cc2ccccc2Oc2ccc(Cl)cc21` [Example 54, 8-chloro-10,11-dihydro-10-[[4-(2-thienylmethyl)-1-piperazinyl]carbonyl]dibenz[b,f][1,4]oxazepine, monohydrochloride], the “Dose Ratio” value in experiment [1] is on record as 2.4. Besides, the responders at 30 mg/kg in experiment [2] (setting [3]) is 60%.

On to `O=C(N1CCN(CCc2ccccc2)CC1)N1Cc2ccccc2Oc2ccccc21` [Example 41, 10,11-dihydro-10-[[4-(2-phenylethyl)-1-piperazinyl]carbonyl]dibenz[b,f][1,4]oxazepine, monohydrochloride], for which, in experiment [1], the “Dose Ratio” value came out at 2.6. The responders at 30 mg/kg in experiment [2] (setting [3]) was 100%.

`Cl.O=C(c1ccncc1)N1CCN(C(=O)N2Cc3ccccc3Oc3ccc(Cl)cc32)CC1` [Example 29, 1-[(8-chlorodibenz[b,f][1,4]oxazepin-10(11H)-yl)carbonyl]-4-(4-pyridinylcarbonyl)piperazine, monohydrochloride]: in experiment [1], the “Dose Ratio” value is reported as 2.2. Moreover, the responders at 30 mg/kg in experiment [2] (setting [3]) was 50%.

Turning to `O=C(C1CCN(C(=O)N2Cc3ccccc3Oc3ccc(Cl)cc32)CC1)N(CCO)CCO` [Example 3, 1-[(8-chlorodibenz[b,f][1,4]oxazepin-10(11H)yl)carbonyl]-N,N-bis(2-hydroxyethyl)-4-piperidinecarboxamide], in experiment [1], the “Dose Ratio” value is listed as 1.5. Moreover, the responders at 30 mg/kg in experiment [2] (setting [3]) is 20%.

For `O=C(N1CCNCC1)N1Cc2ccccc2Oc2ccc(Cl)cc21` [Example 25, 8-chloro-10,11-dihydro-10-(1-piperazinylcarbonyl)dibenz[b,f][1,4]oxazepine, monohydrochloride], the “Dose Ratio” value in experiment [1] amounted to 1.6. Further, the responders at 30 mg/kg in experiment [2] (setting [3]) is 50%.

Regarding `Cl.O=C(Cc1cccnc1)N1CCN(C(=O)N2Cc3ccccc3Oc3ccc(Cl)cc32)CC1` [Example 56, 1-[(8-chlorodibenz[b,f][1,4]oxazepin-10(11H)-yl)carbonyl]-4-(3-pyridinylacetyl)piperazine, monohydrochloride], the “Dose Ratio” value in experiment [1] worked out at 3.3. Further, the responders at 30 mg/kg in experiment [2] (setting [3]) was 50%.

With `CCCN1CCN(C(=O)N2Cc3ccccc3Oc3ccc(Cl)cc32)CC1.Cl` [Example 17, 8-chloro-10,11-dihydro-10-[(4-propyl-1-piperazinyl)carbonyl]dibenz[b,f][1,4]oxazepine, hydrochloride], the “Dose Ratio” value in experiment [1] was determined as 3.1. For the same compound, the ED50 in experiment [2] is 5.1 mg/kg.

`Cl.O=C(N1CCC(N2CCCCC2)CC1)N1Cc2ccccc2Oc2ccc(Cl)cc21` [Example 13, 10-([1,4'-bipiperidin]-1'-ylcarbonyl)-8-chloro-10,11-dihydrodibenz[b,f][1,4]oxazepine, hydrochloride]: in experiment [1], the “Dose Ratio” value is given as 1.6. In addition, the responders at 30 mg/kg in experiment [2] (setting [3]) was 90%.

Take `CCN(CC)CCC1=CCN(C(=O)N2Cc3ccccc3Oc3ccc(Cl)cc32)CC1.Cl` [Example 67, 8-chloro-10-[[4-[2-(diethylamino)ethyl]-3,6-dihydro-1(2H)-pyridinyl]carbonyl]-10,11-dihydrobenz[b,f][1,4]oxazepine, hydrochloride]: the “Dose Ratio” value in experiment [1] turned out to be 10.2. Moreover, the “number of mice out of nine or ten in which a test compound produced analgesia” value in experiment [2] (setting [3]) is given as 6/10.
